From patent publication US20260176274A1, “ENAMINE N-OXIDE TOOLS FOR TARGET IDENTIFICATION APPLICATIONS” (DANA-FARBER CANCER INSTITUTE, INC., priority 2022, published 2026)
Entries after “also recorded” stand apart in the source; their conditions may differ.

Legend:
carbonic anhydrase = biological target: T1, carbonic anhydrase (Bos taurus, UniProt P00921); assay: Labeling site identification on recombinant carbonic anhydrase by nano-LC-MS/MS; parameters: species or system bovine; conditions: probe 10 μM, B2(OH)4 100 μM
T1 construct: purchased MP Biomedicals; host or cells: bovine erythrocytes
Experimental: BARS probe 21′a: Enamine N-oxide 21′a (10 μL, 500 μM in PBS, pH 7.4; 10 μM final concentration) was added to an aliquot of recombinant CA from bovine erythrocytes ([…], MP Biomedicals) suspended in 480 μL PBS, pH 7.4 in a microcentrifuge tube and incubated at rt for 30 min. Tetrahydroxydiboron (10 μL, 5 mM in PBS, pH 7.4; 100 μM final concentration) was subsequently added and gently mixed. The tubes were incubated at rt for an additional 10 min. Subsequently, the sample was concentrated via spin filtration (Amicon® Ultra-0.5 mL, UFC500324, 10 kDa MWCO) following the manufacturer's recommended protocol. PBS was added after each filtration cycle and the concentration was repeated for a total of five times. The eluate was collected in a clean microcentrifuge tube and its concentration determined by NanoDrop (Thermo Fisher Scientific™).
An aliquot of carbonic anhydrase labeled with enamine N-oxide 21′a (prepared from the above procedure) was reduced with dithiothreitol (10 mM final concentration, 56° C., 30 min), alkylated with iodoacetamide (22.5 mM final concentration, rt, 30 min protected from light), and digested overnight with Glu-C (1:20) at 37° C. in 100 mM ammonium bicarbonate. Peptides were desalted using SP3 beads and analyzed by nano-LC-MS/MS using a nanoAcquity UPLC system interfaced to a QExactive HF mass spectrometer (Ficarro et al., Anal. Chem., 9:3440-3447 (2009)). […]

CA2 [1] = biological target: T2, CA2 (Homo sapiens, UniProt P00918); assay: Labeling of endogenous CA in HEK293T cell lysate, streptavidin blot or pulldown and immunoblot against CA2; format: binding; conditions: probe 200 nM; diboron 100 μM 10 min or UV irradiation 10 min
T2 construct: endogenous in cells; host or cells: HEK293T
Experimental: For sample preparation, 5× sample loading buffer was added directly at least 10 μg aliquot of the clicked cell lysate clicked with biotin (picolyl) azide. The samples were subsequently heated to 95° C. for 10 min and loaded onto a BioRad Mini-PROTEAN® TGX™ Precast Protein gel, 4-20% (15 μL) and run in freshly prepared Tris-glycine running buffer (160 V, 50 min). The gel was washed (3×DI water) and transferred to a 0.2 μm PVDF membrane. After transfer, the membrane was washed (3×TBST) and blocked with 5% fish skin gelatin (or any appropriate blocking buffer for Western blot) in TBST (rt, 1 h), and subsequently incubated with the appropriate primary antibody (1:1000 dilution in 5% fish skin gelatin in TBST, rt, 1 h). The membrane was washed (3×TBST) and incubated with the appropriate secondary antibody (1:10000 dilution in 5% fish gelatin in TBST, rt, 1 h). The membrane was again washed thoroughly with TBST and imaged using a chemiluminescence imager (Amersham™ Imager 600, GE).
Samples were loaded onto a Bio-Rad Mini-PROTEAN® TGX™ Precast Protein 15-well gel, 4-20% (15 μL) alongside All Blue Prestained Protein Standard (Bio-Rad, 5 μL) as a ladder, and run in freshly prepared Tris-glycine running buffer (180 V, 45 min). The gel was washed (3×50 mL deionized water) and transferred to a 0.2 m low fluorescence PVDF membrane (Bio-Rad) using a semi-dry transfer apparatus (Bio-Rad Trans-Blot® Turbo™ Transfer System) and preprogrammed transfer setting (1.3 A, 25 V, 10 min).

carbonic anhydrase (CA) [2] = biological target: T3, carbonic anhydrase (CA) (Bos taurus, UniProt P00921); assay: Ligand-directed labeling of equimolar recombinant BSA/CA mixture, in-gel fluorescence; format: binding; conditions: equimolar BSA and CA; probe 200 nM, B2(OH)4 100 μM, 10 min, PBS pH 7.4
Experimental: An equimolar suspension of recombinant BSA and recombinant CA was prepared by combining BSA (22 μg, 1 mg/mL in PBS, pH 7.4) and CA (10 pg, 1 mg/mL in PBS, pH 7.4) in PBS, pH 7.4 (1 mL). This was approximately 333 nM of each protein. For each reaction, an aliquot of this mixture (97 μL) was added to a microcentrifuge tube. […] Sulfonamide competitor (21′, 1 μL, 5 mM solution in 1% DMSO/PBS; 50 μM final concentration) or PBS, pH 7.4 (1 μL) vehicle control was added to the samples. The tubes were incubated at rt for 30 min. Tetrahydroxydiboron (1 μL, 10 mM solution; 100 μM final concentration) was subsequently added with gentle mixing. The tubes were incubated at rt for an additional 10 min. Subsequently, CuAAC click-cocktail solution containing TAMRA-azide (6 μL) was added and the tubes were incubated at rt in the dark for 1 h.
For sample preparation, 5× sample loading buffer (25 μL) was added directly to the TAMRA-modified BSA/CA samples. The samples were subsequently heated to 95° C. for 10 min and then subjected to SDS-PAGE and in-gel fluorescence imaging. In-gel fluorescence imaging was performed on a Typhoon™ FLA 9500 (GE) at 532 nm with photomultiplier tube (PMT) setting of 300 V.

carbonic anhydrase (CA) [3] = biological target: T3, carbonic anhydrase (CA); assay: Intact mass spectrometry of recombinant carbonic anhydrase labeled with probe; format: binding, bovine; parameters: purchased MP Biomedicals; host or cells: bovine erythrocytes; conditions: for labeling of CA (intact mass spectrometry): probe 10 μM, B2(OH)4 100 μM or UV irradiation 10 min
Experimental: Tetrahydroxydiboron (10 μL, 5 mM in PBS, pH 7.4; 100 μM final concentration) was subsequently added and gently mixed. The tubes were incubated at rt for an additional 10 min. Subsequently, the sample was concentrated via spin filtration (Amicon® Ultra-0.5 mL, UFC500324, 10 kDa MWCO) following the manufacturer's recommended protocol. PBS was added after each filtration cycle and the concentration was repeated for a total of five times. The eluate was collected in a clean microcentrifuge tube and its concentration determined by NanoDrop (Thermo Fisher Scientific™).
The samples were then transferred onto a 24-well plate and UV irradiated (365 nm) for 10 min on ice. After every 2 min of irradiation, the plate was rotated […] to ensure complete and equal UV exposure. After irradiation, the samples were transferred to a spin filtration column (Amicon® Ultra-0.5 mL, UFC500324, 10 kDa MWCO) and concentrated following the manufacturer's recommended protocol. PBS was added after each filtration cycle, and the concentration was repeated for a total of five times. The eluate was collected in a clean microcentrifuge tube and its concentration determined by NanoDrop (Thermo Fisher Scientific™).
Replicate samples of carbonic anhydrase (n=4; labeled with enamine N-oxide 21′a or diazirine 21′b) were desalted on a self-packed column (500 μm I.D. fused silica packed with 5 cm POROSR2 resin) and gradient eluted (0→100% B in 1 min, A=200 mM acetic acid in water, B=200 mM acetic acid in acetonitrile) to the mass spectrometer (LTQ XL mass spectrometer, Thermo Fisher Scientific; spray voltage=5 kV). The mass spectrometer recorded full scan profile spectra n z 300-2000. Mass spectra were deconvoluted using MagTran version 1.03b2 (Zhang et al., J. Am. Chem. Soc. Mass. Spectrom., 3:225-244 (1998)). Percent labeling was calculated as intensity labeled protein/(intensity unlabeled protein+intensity labeled protein)×100%.

CA2 [4] = biological target: T2, CA2; assay: In cellulo BARS labeling in live HEK293T cells, immunoblot against CA2; format: cell-based; conditions: probe 5 μM 2 h, wash, B2(OH)4 100 μM 10 min
Experimental: HEK293T cells were cultured in DMEM containing 10% FBS (Sigma), 100 units/mL penicillin, and 0.1 mg/mL streptomycin (Sigma) in a humidified chamber at 37° C. under an ambient atmosphere with 5% CO2. After culturing to >80% confluency in 150 mm plates, the plates were removed from the incubator, the media was aspirated, and the cells were trypsinized at 37° C. with 0.25% trypsin, 0.1% EDTA in HBSS (3 mL). After 3 min, complete growth medium (7 mL) was added to the detached cells, and the cell suspension was transferred to a 50 mL centrifuge tube. Cells were pelleted (400×g, 4 min, 23° C.) and washed with 2×20 mL PBS, pH 7.4. At this point, the density of the cell suspension in PBS was determined by the trypan blue exclusion method. The cells were pelleted once more, and the volume of PBS was adjusted to produce a cell suspension with a final density of 2×10^7 cells/mL. The cell suspension was aliquoted into 2 mL microcentrifuge tubes (3×1 mL, 2×10^7 cells each). […] Competitor 21′ (50 μM final concentration, from a 500 mM stock in DMSO) was also added to the third tube. The samples were incubated at 37° C. with end-over-end rotation. After 2 h of incubation, the cells were pelleted (400×g, 4 min, 23° C.) and washed once with PBS, pH 7.4.

validated targets = assay: Target identification in cell lysate: BARS probe, diboron activation, streptavidin pulldown, immunoblot against validated targets; format: binding; conditions: K562 (24′a) or HepG2 (26′a) cell lysate; probe 1 μM, B2(OH)4 100 μM 10 min
Experimental: The click-modified cell lysate (3 mg) was transferred to 15 mL centrifuge tubes and precipitated via methanol/chloroform precipitation using the following protocol. Methanol (6 mL) was added to the lysate and vortexed. Chloroform (1.5 mL) was subsequently added and vortexed. Finally, water (4 mL) was added and vortexed. The samples were centrifuged (3000×g, 5 min, 4° C.). The top aqueous layer was removed, and methanol (8 mL) was subsequently added and vortexed. The samples were centrifuged (3000×g, 5 min, 4° C.), the supernatant was removed, and the methanol wash was repeated once more. […]
Samples were loaded onto a Bio-Rad Mini-PROTEAN® TGX™ Precast Protein 15-well gel, 4-20% (15 μL) alongside All Blue Prestained Protein Standard (Bio-Rad, 5 μL) as a ladder, and run in freshly prepared Tris-glycine running buffer (180 V, 45 min). The gel was washed (3×50 mL deionized water) and transferred to a […] low fluorescence PVDF membrane (Bio-Rad) using a semi-dry transfer apparatus (Bio-Rad Trans-Blot® Turbo™ Transfer System) and preprogrammed transfer setting (1.3 A, 25 V, 10 min). […]
Enamine N-oxide probe (15 μL; 200 nM or 1 μM final concentration for probe 21′a, […] for probes 22′a-26′a) was added to a microcentrifuge tube containing cell lysate (3 mg, as determined by BCA assay) suspended in cold NP40 lysis buffer (1.455 mL). […]

T3 sequence (P00921 whole entry): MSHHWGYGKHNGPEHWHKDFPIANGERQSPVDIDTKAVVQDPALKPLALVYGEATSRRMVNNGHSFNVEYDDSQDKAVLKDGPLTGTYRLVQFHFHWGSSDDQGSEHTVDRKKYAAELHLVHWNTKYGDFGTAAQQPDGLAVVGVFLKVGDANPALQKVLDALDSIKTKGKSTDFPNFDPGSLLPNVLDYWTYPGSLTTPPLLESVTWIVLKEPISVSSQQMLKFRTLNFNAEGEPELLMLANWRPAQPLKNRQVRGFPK
T1 sequence (P00921 whole entry): as above

Structure (SMILES)	labeling of endogenous CA in HEK293T cell lysate (CA2 [1])	labeling of CA (intact mass spectrometry) (carbonic anhydrase (CA) [3]) [%]	additional targets pulled down (validated targets)	further results
C#CCCC[N+](C)([O-])C(Br)=CC(Cl)CCCC(=O)NCCCOCCOCCOCCCNC(=O)c1ccc(S(N)(=O)=O)cc1 (centres unmarked) [21′a, 23-Bromo-21-chloro-N-methyl-1,17-dioxo-N-(pent-4-yn-1-yl)-1-(4-sulfamoylphenyl)-6,9,12-trioxa-2,16-diazatricos-22-en-23-amine oxide]	could also be labeled; also recorded: superior labeling	51.8		labeling sites on CA N-terminal peptide (carbonic anhydrase): His2 or His3; selectivity of labeling, CA over BSA (carbonic anhydrase (CA) [2]): CA was preferentially labeled over BSA; improvement of CA labeling, enamine N-oxide over diazirine (carbonic anhydrase (CA) [3]; 51.8% vs 3.6% labeling): 14.4 fold; target identification in live HEK293T cells (CA2) (CA2 [4]): positively identified
C#CCCC1(CCNC(=O)CCOCCOCCOCCNC(=O)c2ccc(S(N)(=O)=O)cc2)N=N1 [21′b, N-(15-(3-(but-3-yn-1-yl)-3H-diazirin-3-yl)-12-oxo-3,6,9-trioxa-13-azapentadecyl)-4-sulfamoylbenzamide, reference compound]		3.6		
C#CCCC[N+](C)([O-])/C(Br)=C/C(Cl)CCCC(=O)NCCCCCCNc1cc(Nc2ncc(C(=O)Nc3c(C)cccc3Cl)s2)nc(C)n1 (centres unmarked) [24′a, (Z)-1-Bromo-3-chloro-7-((6-((6-((5-((2-chloro-6-methylphenyl)carbamoyl)thiazol-2-yl)amino)-2-methylpyrimidin-4-yl)amino)hexyl)amino)-N-methyl-7-oxo-N-(pent-4-yn-1-yl)hept-1-en-1-amine oxide]			ABL and p38 pulled down	
C#CCCC[N+](C)([O-])/C(Br)=C/C(Cl)CCCC(=O)N(C)[C@@H]1C[C@H]2O[C@@](C)([C@@H]1OC)n1c3ccccc3c3c4c(c5c6ccccc6n2c5c31)C(=O)NC4 (stereo partly drawn) [26′a, (Z)-1-Bromo-3-chloro-7-(((5S,6R,7R,9R)-6-methoxy-5-methyl-14-oxo-6,7,8,9,15,16-hexahydro-5H,14H-17-oxa-4b,9a,15-triaza-5,9-methanodibenzo[b,h]cyclonona[jkl]cyclopenta[e]-as-indacen-7-yl)(methyl)amino)-N-methyl-7-oxo-N-(pent-4-yn-1-yl)hept-1-en-1-amine oxide]			PKC and SRC pulled down	
CCN(CC)C(=O)C=CCCc1ccccc1 [compound 13, reference compound]	barely perceptible			protein labeled (intact mass spectrometry of CA) (carbonic anhydrase (CA) [3]; N-oxide probe plus diboron or diazirine probe plus UV irradiation): < 1%
